{"source": "patent US9376425B2", "about": "“Heterocyclic compounds as MDM2 inhibitors for the treatment of cancer” (AMGEN INC., priority 2011, dated 2016)"}
{"biological_target": "T1, human MDM2 (GST-hMDM2 1-188), interaction with biotinylated-p53 (1-83) (Homo sapiens, UniProt Q00987)", "T1 construct": "Amino acid residues 1-188 of human MDM2 were expressed; made in house; host or cells: Escherichia coli", "T1 sequence (Q00987 1-188)": "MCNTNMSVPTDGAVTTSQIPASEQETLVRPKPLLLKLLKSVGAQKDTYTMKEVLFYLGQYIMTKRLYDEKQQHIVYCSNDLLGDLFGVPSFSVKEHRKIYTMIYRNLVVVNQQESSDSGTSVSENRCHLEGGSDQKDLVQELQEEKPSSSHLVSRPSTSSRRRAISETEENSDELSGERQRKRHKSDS", "assay": "improved HTRF assay (HTRF2 assay), inhibition of HDM2-p53 interaction", "format": "binding", "conditions": "0.2 nM GST-hMDM2, 0.5 nM biotinylated-p53, 100 mM KF", "how_it_was_run": "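GST-hMDM2 preincubated 20 min at RT with serially diluted compound, then biotinylated p53 (1-83, E. coli) added for 60 min. Detection with SA-XLent, anti-GST cryptate and KF, equilibrated >4 h; final DMSO 2%. TR-FRET read; % inhibition calculated relative to nutlin-3.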", "units": {"IC50": "nM"}}
{"smiles": "CC(C)(C)S(=O)(=O)C[C@H](C1CC1)N1C(=O)[C@H](Cc2ccno2)O[C@H](c2cccc(Cl)c2)[C@H]1c1ccc(Cl)cc1", "note": "[Example 384, (2S,5R,6R)-4-((S)-2-(tert-Butylsulfonyl)-1-cyclopropylethyl)-6-(3-chlorophenyl)-5-(4-chlorophenyl)-2-(isoxazol-5-ylmethyl)morpholin-3-one]", "IC50": 13}
{"smiles": "CC[C@@H](CS(=O)(=O)C(C)(C)C)N1C(=O)[C@@H](CNC(C)=O)O[C@H](c2cccc(Cl)c2)[C@H]1c1ccc(Cl)cc1", "note": "(single isomer, unassigned) [Example 379, N-(((2R,5R,6R)-4-((S)-1-(tert-Butylsulfonyl)butan-2-yl)-6-(3-chlorophenyl)-5-(4-chlorophenyl)-3-oxomorpholin-2-yl)methyl)acetamide or N-(42S,5R,6R)-4-((S)-1-(tert-butylsulfonyl)butan-2-yl)-6-(3-chlorophenyl)-5-(4-chlorophenyl)-3-oxomorpholin-2-yl)methyl)acetamide]", "IC50": 82}
{"smiles": "CCC[C@@H](CS(=O)(=O)C(C)(C)C)N1C(=O)[C@@H](CC(=O)O)O[C@H](c2cccc(Cl)c2)[C@H]1c1ccc(Cl)cc1", "note": "(single isomer, unassigned) [Example 194, 2-((2R,5R,6R)-4-((S)-1-(tert-butylsulfonyl)pentan-2-yl)-6-(3-chlorophenyl)-5-(4-chlorophenyl)-3-oxomorpholin-2-yl)acetic acid or 2-((2S,5R,6R)-4-((S)-1-(tert-butylsulfonyl)pentan-2-yl)-6-(3-chlorophenyl)-5-(4-chlorophenyl)-3-oxomorpholin-2-yl)acetic acid]", "IC50": 3}
{"smiles": "CC[C@@H]([C@H](C)S(=O)(=O)C(C)C)N1C(=O)[C@@H](CC(=O)O)O[C@H](c2cccc(Cl)c2)[C@H]1c1ccc(Cl)cc1", "note": "(single isomer, unassigned) [Example 413]", "IC50": "< 1"}
{"smiles": "C[C@@H](CS(=O)(=O)C(C)(C)C)N1C(=O)[C@@H](CC(=O)NO)O[C@H](c2cccc(Cl)c2)[C@H]1c1ccc(Cl)cc1", "note": "(single isomer, unassigned) [Example 230, 2-((2R,5R,6R)-4-((S)-1-(tert-butylsulfonyl)propan-2-yl)-6-(3-chlorophenyl)-5-(4-chlorophenyl)-3-oxomorpholin-2-yl)-N-hydroxyacetamide or 2-((2S,5R,6R)-4-((S)-1-(tert-butylsulfonyl)propan-2-yl)-6-(3-chlorophenyl)-5-(4-chlorophenyl)-3-oxomorpholin-2-yl)-N-hydroxyacetamide]", "IC50": 7}
{"smiles": "C[C@@H](CS(=O)(=O)C(C)(C)C)N1C(=O)[C@@H](CC(=O)O)O[C@H](c2cc(F)cc(Cl)c2)[C@H]1c1ccc(Cl)c(F)c1", "note": "(single isomer, unassigned) [Example 423, 2-((2R,5R,6R)-4-((S)-1-(tert-Butylsulfonyl)propan-2-yl)-5-(4-chloro-3-fluorophenyl)-6-(3-chloro-5-fluorophenyl)-3-oxomorpholin-2-yl)acetic acid or 2-((2S,5R,6R)-4-((S)-1-(tert-butylsulfonyl)propan-2-yl)-5-(4-chloro-3-fluorophenyl)-6-(3-chloro-5-fluorophenyl)-3-oxomorpholin-2-yl)acetic acid]", "IC50": 1}
{"smiles": "CC(C)(C)NS(=O)(=O)C[C@H](C1CC1)N1C(=O)[C@@H](CC(=O)O)O[C@H](c2cccc(Cl)c2)[C@H]1c1ccc(Cl)cc1", "note": "(single isomer, unassigned) [Example 292, 2-((2R,5R,6R)-4-((S)-2-(N-(tert-Butyl)sulfamoyl)-1-cyclopropylethyl)-6-(3-chlorophenyl)-5-(4-chlorophenyl)-3-oxomorpholin-2-yl)acetic acid or 2-((2S,5R,6R)-4-((S)-2-(N-(tert-butyl)sulfamoyl)-1-cyclopropylethyl)-6-(3-chlorophenyl)-5-(4-chlorophenyl)-3-oxomorpholin-2-yl)acetic acid]", "IC50": "< 1"}
